Laboratory results from US7423048B2, “Compounds for treating fundic disaccomodation” (Janssen Pharmaceutica, N.V., priority 2000, dated 2008).
Marks after values point to notes of the source that are not given here.

Test system: fundus of the stomach (gastric tone) in conscious dogs
Test: Gastric tone measured by an electronic barostat in conscious dogs
Type: in vivo, beagle dogs
Conditions: 1 hour observation period, constant pressure 6 mmHg
Text: C. Pharmacological Examples C.1 Gastric Tone Measured by an Electronic Barostat in Conscious Dogs
Gastric tone cannot be measured by manometric methods. Therefore an electronic barostat was used. This allows the study of the physiological pattern and regulation of gastric tone in conscious dogs and the influence of test-compounds on this tone.
The barostat consists of an air injection system which is connected by a double-lumen 14-French polyvinyl tube to an ultrathin flaccid polyethylene bag (maximal volume: ±700 ml). Variations in gastric tone were measured by recording changes in the volume of air within an intragastric bag, maintained at a constant pressure. The barostat maintains a constant pressure (preselected) within a flaccid air-filled bag introduced into the stomach, changing the volume of air within the bag by an electronic feedback system.
Thus the barostat measures gastric motor activity (contraction or relaxation) as changes in intragastric volume (decrease or increase resp.) at a constant intragastric pressure. The barostat consists of a strain gauge linked by an electronic relay to an air injection-aspiration system. Both the strain gauge and the injection system are connected by means of double-lumen polyvinyl tube to an ultrathin polyethylene bag. A dial in the barostat allows selection of the pressure level to be maintained within the intragastric bag.
Female beagle dogs, weighing 7-17 kg, were trained to stand quietly in Pavlov frames. They were implanted with a gastric cannula under general anaesthesia and aseptic precautions. After a median laparotomy, an incision was made through the gastric wall in longitudinal direction between the greater and the lesser curve, 2 cm above the nerves of Latarjet. The cannula was secured to the gastric wall by means of a double purse string suture and brought out via a stub wound at the left quadrant of the hypochondrium. Dogs were allowed a recovery period of two weeks.
At the beginning of the experiment, the cannula was opened in order to remove any gastric juice or food remnants. If necessary, the stomach was cleansed with 40 to 50 ml lukewarm water. The ultrathin bag of the barostat was positioned into the fundus of the stomach through the gastric cannula. In order to ensure easy unfolding of the intragastric bag during the experiment, a volume of 300-400 ml was injected twice into the bag.
When during a stabilisation period of maximum 90 minutes, the gastric volume is stable during 15 minutes at a constant pressure of 6 mmHg (about 0.81 kPa), the test compound was administered subcutaneously (S.C.), or intraduodenally (I.D.). Test compounds were screened, i.e. changes in gastric volume were measured, usually at 0.63 mg/kg. […] Table C-1 summarizes the mean maximal change in volume on relaxation of the fundus, during the 1 hour observation period after S.C. or I.D. administration of the test compound (0.63 mg/kg).

[1] = S.C. administration, 0.63 mg/kg

Compound | Maximum change in volume (mean maximal change in volume on relaxation of the fundus) [1] | also measured
O=C1CN(CC(O)CNCC2COc3cccnc3O2)C(=O)N1 (centres unmarked) [Compound 13, 1-[3-[[(2,3-dihydro-1,4-dioxino[2,3-b]pyridin-3-yl)methyl]amino]-2-hydroxypropyl]-2,4-imidiazolidinedione] | – | Maximum change in volume (mean maximal change in volume on relaxation of the fundus) (I.D. administration, 0.63 mg/kg): 118 mL
CC1(C)CNC(=O)N(CCCNCC2Oc3cccnc3O2)C1 (racemic) [Compound 10, (±)-1-[3-[(1,3-dioxolo[4,5-b]pyridin-2-ylmethyl)amino]-propyl]tetrahydro-5,5-dimethyl-2(1H)-pyrimidinone] | 31 mL | –
O=C1NCCCN1CCCNCC1COc2cccnc2O1 (racemic) [Compound 1, (±)-1-[3-[[(2,3-dihydro-1,4-dioxino[2,3-b]pyridin-3-yl)methyl]amino]propyl]tetrahydro-2(1H)pyrimidinone] | 156 mL | –
O=C1CCN(CCCNC[C@H]2COc3cccnc3O2)C(=O)N1 [Compound 25, (S)-1-[3-[[(2,3-dihydro[1,4]dioxino[2,3-b]pyridin-3-yl)methyl]amino]-propyl]dihydro-2,4(1H,3H)-pyrimidinedione] | – | Maximum change in volume (mean maximal change in volume on relaxation of the fundus) (I.D. administration, 0.04 mg/kg (footnote *)): 226* ml
O=C(O)C(=O)O.O=C1NCCCN1CCCNCC1CCc2cccnc2O1 (racemic) [Compound 9, (±)-1-[3-[[(3,4-dihydro-2H-pyrano[2,3-b]pyridin-2-yl)methyl]amino]propyl]tetrahydro-2(1H)-pyrimidinone ethanedioate (1:1)] | 78 mL | –
